# Experiments:
# rhGAA [1] = target: T1, rhGAA (Homo sapiens, UniProt P10253); assay: Effect of compounds on rhGAA stability at neutral pH (residual α-glucosidase activity); type: biochemical; details: pH 7.0, 37° C., 0.1-10 mM, up to 48 hrs
# T1 construct: purchased Genzyme Co, Cambridge, Mass., USA
# Description: (§1) The standard activity assay of rhGAA was performed in 200 μl by using 5 μg of enzyme at 37° C. in 100 mM sodium acetate pH 4.0 and 20 mM 4NP-Glc. The reaction was started by adding the enzyme; after suitable incubation time (1-2 min) the reaction was blocked by adding 800 μL of 1 M sodium carbonate pH 10.2. Absorbance was measured at 420 nm at room temperature, the extinction coefficient to calculate enzymatic units was 17.2 mM^−1 cm^−1. One enzymatic unit is defined as the amount of enzyme catalyzing the conversion of 1 μmol substrate into product in 1 min, under the indicated conditions.
# (§2) The effect of different pHs on the rhGAA stability was measured by preparing reaction mixtures containing 0.75 mg mL^−1 of enzyme in the presence of 50 mM citrate/phosphate (pH 3.0-7.0) at a certain pH. After incubations at 37° C., aliquots were withdrawn at the times indicated and the residual α-glucosidase activity was measured with the standard assay. To test the effect on the pH stability of rhGAA of chemical chaperons and of the other molecules, experiments were performed as described above by adding to the reaction mixtures the amounts of the different compounds indicated in the text.
# [2] = Effect of pH on rhGAA stability; type: physicochemical
# Description: as §1, §2
# rhGAA [3] = target: T1, rhGAA; assay: Thermal stability scans of rhGAA (SYPRO Orange); type: binding; details: pH 7.4; for Tm of rhGAA in the presence of chaperone: NAC 10 mM, DNJ 0.1 mM
# Description: Thermal stability scans of rhGAA were performed as described in [Flanagan et al. 2009]. Briefly, 2.5 μg of enzyme were incubated in the absence and in the presence of NAC and DNJ, 10 mM and 0.1 mM, respectively, SYPRO Orange dye, and sodium phosphate 25 mM buffer, 150 mM NaCl, pH 7.4 or sodium acetate 25 mM buffer, 150 mM NaCl, pH 5.2. Thermal stability scans were performed at 1° C./min in the range 25-95° C. in a Real Time LightCycler (Bio-Rad). SYPRO Orange fluorescence was normalized to maximum fluorescence value within each scan to obtain relative fluorescence. Melting temperatures were calculated according to (Niesen et al. 2007).
# rhGAA in PD fibroblasts = target: T2, rhGAA in PD fibroblasts (Homo sapiens, UniProt P10253); assay: Correction of GAA activity by rhGAA in PD fibroblasts with chaperone (synergy); type: cell-based; details: patient 3 (FIG. 7)
# T2 construct: purchased Genzyme Co, Cambridge, Mass., USA
# Description: To study the rhGAA uptake and correction of GAA activity in PD fibroblasts, the cells were incubated with […] rhGAA for 24 hours, in the absence or in the presence of 10 mM NAC. Untreated cells or were used for comparison. After the incubation the cells were harvested by trypsinization and disrupted by 5 cycles of freezing and thawing.
# GAA activity was assayed by using the fluorogenic substrate 4-methylumbelliferyl-alpha-D-glucopyranoside (Sigma-Aldrich) according to a published procedure [Porto et al, 2009]. Briefly, 25 micrograms of protein were incubated with the fluorogenic substrate (2 mM) in 0.2 M acetate buffer, pH 4.0, for 60 minutes in incubation mixtures of 100 μl. The reaction was stopped by adding 700 μl of glycine-carbonate buffer, pH 10.7. Fluorescence was read at 365 nm (excitation) and 450 nm (emission) on a Turner Biosystems Modulus fluorometer. Protein concentration in cell homogenates was measured by the Bradford assay (Biorad, Hercules, Calif.).
# To study GAA immunoreactive material, fibroblast extracts were subjected to western blot analysis. The cells were harvested, washed in phosphate-buffered saline, resuspended in water, and disrupted by five cycles of freeze-thawing. Equal amounts (20 μg protein) of fibroblast extracts were subjected to sodium dodecyl sulfate polyacrylamide gel electrophoresis and proteins were transferred to PVD membrane (Millipore, Billerica, Mass.). An anti-human GAA antiserum was used as primary antibody to detect GAA polypeptides; to detect β-actin, a monoclonal mouse antibody was used Immunoreactive proteins were detected by chemiluminescence (ECL, Amersham, Freiburg, Germany)
# To study the distribution of AlexaFluor546 labeleld GAA, PD fibroblasts grown on coverslips were fixed using methanol, permeabilized using 0.1% saponin and locked with 0.01% saponin, 1% fetal bovine serum diluted in phosphate-buffered saline for 1 hour. The cells were incubated with the primary antibodies, with secondary antibodies in blocking solution and then mounted with vectashield mounting medium (Vector Laboratories, Burlingame, Calif.). Samples were examined with a Zeiss LSM 5 10 laser scanning confocal microscope. Authors used Argon/2 (458, 477, 488, and 514 nanometers) and HeNe1 (543 nanometers) excitation lasers, which were switched-on separately to reduce crosstalk of the two fluorochromes. The green and the red emissions were separated by a dichroic splitter (FT 560) and filtered (515-540-nm bandpass filter for green and >610-nm long pass filter for red emission). A threshold was applied to the images to exclude ˜99% of the signal found in control images.
# rhGAA [4] = target: T1, rhGAA; assay: Effect on rhGAA enzyme activity (standard activity assay); type: biochemical; details: three concentrations (FIG. 4)
# Description: as §1
# [5] = target: T3, rh-alpha-Gal A in Fabry disease cell lines (Homo sapiens, UniProt P06280); assay: Correction by rh-alpha-Gal A in Fabry disease cell lines with chaperone; type: cell-based; details: three Fabry disease cell lines
# T3 construct: purchased Genzyme Co, Cambridge, Mass., USA
# T3 sequence (P06280 32-429): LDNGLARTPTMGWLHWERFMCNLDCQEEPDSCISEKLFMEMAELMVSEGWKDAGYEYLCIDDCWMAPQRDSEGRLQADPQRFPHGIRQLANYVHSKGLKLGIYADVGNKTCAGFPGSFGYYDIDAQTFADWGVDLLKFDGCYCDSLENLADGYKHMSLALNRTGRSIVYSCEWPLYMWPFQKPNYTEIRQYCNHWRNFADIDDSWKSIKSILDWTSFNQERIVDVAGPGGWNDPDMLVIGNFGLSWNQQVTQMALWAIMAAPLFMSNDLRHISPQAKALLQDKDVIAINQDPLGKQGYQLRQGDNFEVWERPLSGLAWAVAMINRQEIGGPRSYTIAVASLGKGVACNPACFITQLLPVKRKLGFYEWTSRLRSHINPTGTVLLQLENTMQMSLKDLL
# Description: Fibroblasts from PD and Fabry disease patients were derived from skin biopsies after obtaining the informed consent of patients. Normal age-matched control fibroblasts were available in the laboratory of the Department of Pediatrics, Federico II University of Naples. All cell lines were grown at 37° C. with 5% CO2 in Dulbecco's modified Eagle's medium (Invitrogen, Grand Island, N.Y.) and 10% fetal bovine serum (Sigma-Aldrich, St Louis, Mo.), supplemented with 100 U/ml penicillin and […] streptomycin.
compound,measurement,setting,value
"NCC(=O)O [Gly, reference compound]",stabilization of rhGAA at neutral pH,rhGAA [1],did not prevent enzyme inactivation
"rhGAA: recombinant human GAA (alglucosidase, Myozyme) from Genzyme, used for enzyme replacement therapy",rhGAA residual activity after 4 hours,"[2]; pH 3.0 or 7.0, 37° C., 4 hours",approximately 50%
same,rhGAA residual activity after 16 hours,"[2]; pH 3.0 or 7.0, 37° C., 16 hours",less than 10%
same,rhGAA stability at pH 5.0,"[2]; pH 5.0, 37° C., up to 24 hours",stable
same,Tm of rhGAA in the absence of chaperone,rhGAA [3],50.2±0.1 °C
"Oc1ccc(C=Cc2cc(O)cc(O)c2)cc1 [resveratrol, reference compound]",enhancement of rhGAA in PD cultured fibroblasts,rhGAA in PD fibroblasts,did not enhance
"CC(=O)NCC(=O)O [NAG, N-acetyl glycine]",stabilization of rhGAA at neutral pH,rhGAA [1],remarkable stabilization
same,effect on the activity of the enzyme (rhGAA),rhGAA [4],no effect
"O=C(O[C@@H]1Cc2c(O)cc(O)cc2O[C@@H]1c1cc(O)c(O)c(O)c1)c1cc(O)c(O)c(O)c1 [epigallo chatechingallate, epigallo catechingallate, reference compound]",enhancement of rhGAA in PD cultured fibroblasts,rhGAA in PD fibroblasts,did not enhance
"N[C@@H](CO)C(=O)O [Ser, reference compound]",stabilization of rhGAA at neutral pH,rhGAA [1],did not prevent enzyme inactivation
"OC[C@H]1NC[C@H](O)[C@@H](O)[C@H]1O [DGJ, 1-deoxy-galactonojiirimycin, reference compound]",enhancement of correction by rh-alpha-Gal A,[5],largely enhanced
"CCCCN1C[C@H](O)[C@@H](O)[C@H](O)[C@H]1CO [NB-DNJ, N-butyl-deoxynojirimycin, reference compound]",Tm of rhGAA in the presence of chaperone,rhGAA [3],65.9±0.3 °C
"OC[C@H]1NC[C@H](O)[C@@H](O)[C@@H]1O [DNJ, 1-deoxy-nojiirimycin, reference compound]",Tm of rhGAA in the presence of chaperone,rhGAA [3],65.9±0.3 °C
"OCCS [2-mercapto-ethanol, reference compound]",stabilization of rhGAA at neutral pH,rhGAA [1],did not prevent enzyme inactivation
"N[C@@H](CS)C(=O)O [Cys, reference compound]",stabilization of rhGAA at neutral pH,rhGAA [1],did not prevent enzyme inactivation
"CC(=O)N[C@@H](CO)C(=O)O [NAS, N-acetyl serine]",stabilization of rhGAA at neutral pH,rhGAA [1],remarkable stabilization
same,effect on the activity of the enzyme (rhGAA),rhGAA [4],no effect

# Source: patent US20150147309A1, “ALLOSTERIC CHAPERONES AND USES THEREOF” (Fondazione Telethon, priority 2012, published 2015)
